Measured values published in patent publication US5430062A, “Stilbene derivatives as anticancer agents” (priority 1993, dated 1995).
“Also recorded” adds a separate entry of the source. Where two headings read alike, the source gives them in different places.

Experiments:
MLM melanoma = experiment: MTT cytotoxicity assay, MLM; conditions: […]
A-549 lung carcinoma = experiment: MTT cytotoxicity assay, A-549; conditions: Homo sapiens, A549, […]
tubulin [1] = experiment: Inhibition of [3H]colchicine binding to tubulin (DEAE-filter); set-up: species or system bovine; conditions: 1 μM tubulin, 5 μM [3H]colchicine, 5 μM inhibitor, 10 min, 37° C.
tubulin [2] = experiment: Inhibition of tubulin polymerization (turbidimetry); assay type: biochemical, bovine
[3] = tested on: five cancer cell cultures; experiment: MTT cytotoxicity assay, five cancer cell cultures taken together; conditions: for cytotoxicity (in words): five cancer cell lines; for less cytotoxic than 8a / cytotoxicity reduced: relative to 8a
SKMEL-5 melanoma = experiment: MTT cytotoxicity assay, SKMEL-5; conditions: Homo sapiens, SK-MEL-5, […], read-out: Cytotoxicity ED50, SKMEL-5
MCF-7 breast carcinoma = experiment: MTT cytotoxicity assay, MCF-7; conditions: Homo sapiens, MCF7, […]
[4] = tested on: HT-29 colon adenocarcinoma; experiment: MTT cytotoxicity assay, HT-29; conditions: Homo sapiens, HT-29, […], read-out: Cytotoxicity ED50, HT-29
[5] = first series (Table VIII and text), 37° C., 20 min, read-out: Tubulin polymerization IC50 (±S.D.)
[6] = read-out: Cytotoxicity ED50, MLM
[7] = read-out: Cytotoxicity ED50, A-549
[8] = read-out: Cytotoxicity ED50, MCF-7
[9] = second series (Tables V-VII, IX), read-out: Inhibition of Tubulin Polymerization IC50 (±S.D.)
[10] = read-out: cytotoxicity ED50, A-549, MCF-7, HT-29, and SKMEL-5 cell cultures

IC50 (tubulin [2]; [5]) [µM]	IC50 (tubulin [2]; [9]) [µM]	Compound	IC50 (MLM melanoma; read-out: Cytotoxicity ED50, MLM, MLM, MTT, six days) [µM]	IC50 (A-549 lung carcinoma; read-out: Cytotoxicity ED50, A-549, A-549, MTT, six days) [µM]	Colchicine binding % inhibition (tubulin [1]) [%]	inhibition of tubulin polymerization (in words) (tubulin [2])	cytotoxicity (in words) [3]	less cytotoxic than 1a and 5a ([3]; relative to 1a and 5a)	IC50 (SKMEL-5 melanoma) [µM]	IC50 (MCF-7 breast carcinoma; read-out: Cytotoxicity ED50, MCF-7, MCF-7, MTT, six days) [µM]	IC50 (MLM melanoma; [6]) [µM]	IC50 (A-549 lung carcinoma; [7]) [µM]	IC50 ([3]; read-out: cytotoxicity ED50, in at least three cell lines) [µM]	IC50 [4] [µM]	IC50 (MCF-7 breast carcinoma; [8]) [µM]	IC50 ([3]; read-out: cytotoxicity ED50, in at least four cell lines) [µM]	less cytotoxic than 8a / cytotoxicity reduced [3]	IC50 ([3]; read-out: cytotoxicity ED50, five cancer cell lines) [µM]	IC50 [3, 10] [µM]	cytotoxicity reduced relative to 27 ([3]; 28 relative to 27) [times]
–	11	COc1ccc(CC(C#N)c2cc(OC)c(OC)c(OC)c2)cc1 (centres unmarked) [compound 17h, 3-(4-Methoxyphenyl)-2-(3,4,5-trimethoxyphenyl)propanonitrile]	–	–	–	–	–	–	0.0041	–	1.6	0.0096	–	0.0075	0.014	< 1	–	–	–	–
–	> 40	COc1ccc(C(C#N)Cc2cc(OC)c(OC)c(OC)c2)cc1 (centres unmarked) [compound 17i, 2-(4-Methoxyphenyl)-3-(3,4,5-trimethoxyphenyl)propanonitrile]	–	–	–	–	–	–	6.4	–	21.1	11.5	–	9.4	14.3	–	10,000 -fold	–	–	–
–	> 40	COC(=O)C(Cc1cc(OC)c(OC)c(OC)c1)c1ccc(OC)cc1 (centres unmarked) [compound 17j, Methyl 2-(4-methoxyphenyl)-3-(3,4,5-trimethoxyphenyl)n-proponate]	–	–	–	–	–	–	> 25	–	> 25	> 25	–	> 25	> 25	–	–	> 25	–	–
–	7.4	COc1ccc(C(=O)c2cc(OC)c(OC)c(OC)c2)cc1 [compound 27, 3,4,4',5-Tetramethoxybenzophenone]	–	–	–	–	–	–	0.012	–	0.013	0.011	–	0.013	0.015	–	about 100 -fold	–	–	–
–	> 40	COc1ccc(C(O)c2cc(OC)c(OC)c(OC)c2)cc1 (centres unmarked) [compound 28, 4-Methoxyphenyl-(3,4,5-trimethoxyphenyl)methanol]	–	–	–	–	–	–	1.5	–	16.8	1.5	–	1.2	1.9	–	–	–	–	100

Further lines, the compound ahead of its results:

Compound	IC50 (tubulin [2]; [5]) [µM]	IC50 (tubulin [2]; [9]) [µM]	IC50 (MLM melanoma; read-out: Cytotoxicity ED50, MLM, MLM, MTT, six days) [µM]	IC50 (A-549 lung carcinoma; read-out: Cytotoxicity ED50, A-549, A-549, MTT, six days) [µM]	Colchicine binding % inhibition (tubulin [1]) [%]	inhibition of tubulin polymerization (in words) (tubulin [2])	cytotoxicity (in words) [3]	less cytotoxic than 1a and 5a ([3]; relative to 1a and 5a)	IC50 (SKMEL-5 melanoma) [µM]	IC50 (MCF-7 breast carcinoma; read-out: Cytotoxicity ED50, MCF-7, MCF-7, MTT, six days) [µM]	IC50 (MLM melanoma; [6]) [µM]	IC50 (A-549 lung carcinoma; [7]) [µM]	IC50 ([3]; read-out: cytotoxicity ED50, in at least three cell lines) [µM]	IC50 [4] [µM]	IC50 (MCF-7 breast carcinoma; [8]) [µM]	IC50 ([3]; read-out: cytotoxicity ED50, in at least four cell lines) [µM]	less cytotoxic than 8a / cytotoxicity reduced [3]	IC50 ([3]; read-out: cytotoxicity ED50, five cancer cell lines) [µM]	IC50 [3, 10] [µM]	cytotoxicity reduced relative to 27 ([3]; 28 relative to 27) [times]
COc1ccc(/C=C\c2cc(OC)c(OC)c(OC)c2)c(Cl)c1 [compound 5e]	3.5	–	0.14	0.051	73	strong inhibitors of tubulin polymerization; also recorded: active as inhibitors of tubulin polymerization; also recorded: small reductions	decreased the cytotoxicity	about 1000 -fold	0.017	0.046	–	–	–	–	–	–	–	–	–	–
COc1cc(/C=C/c2ccc(N(C)C)cc2)cc(OC)c1OC [compound 6n, (E)-1-[4-(N,N-Dimethylamino)phenyl]-2-(3,4,5-trimethoxyphenyl)ethene]	> 50	–	–	–	–	neither trans stilbene was able to significantly inhibit tubulin polymerization	–	–	0.0046	–	0.0125	0.0061	< 1	0.0069	0.082	–	–	–	–	–
COc1ccc(NCc2cc(OC)cc(OC)c2)cc1 [compound 12d]	29	–	–	–	39	–	–	–	2.41	–	> 25	5.71	–	17.8	6.08	–	–	–	–	–
COC(=O)/C(=C/c1ccc(OC)cc1)c1cc(OC)c(OC)c(OC)c1 [compound 24a, (E)-Methyl 3-(4-methoxyphenyl)-2-(3,4,5-trimethoxyphenyl)-prop-2-enoate]	–	> 40	–	–	–	–	–	–	0.0064	–	9.6	0.011	–	0.0095	0.02	–	–	–	0.0064 to 0.05	–
CNC(=O)/C(=C/c1ccc(OC)cc1)c1cc(OC)c(OC)c(OC)c1 [compound 24c, (E)-N-Methyl-[3-(4-methoxyphenyl)-2-(3,4,5-trimethoxyphenyl)]-prop-2-enoamide]	–	35	–	–	–	–	–	–	0.024	–	9.3	0.024	–	0.026	0.05	–	–	–	0.0064 to 0.05	–
CCNC(=O)/C(=C/c1ccc(OC)cc1)c1cc(OC)c(OC)c(OC)c1 [compound 24d, (E)-N-Ethyl-[3-(4-methoxyphenyl)-2-(3,4,5-trimethoxyphenyl)]-prop-2-enoamide]	–	> 40	–	–	–	–	did not show considerable cytotoxicity	–	7.05	–	> 25	3.4	–	1.8	3.7	–	–	–	–	–
